According to ChEMBL document CHEMBL1201862, “PubChem BioAssay data set” (2004):
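Briefly, cells in 96-well plates were exposed to five compound concentrations for 48 h, and endpoints were estimated by linear interpolation. GI50 = concentration required for 50% inhibition of growth.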 The source made the active and inactive calls. No stated cut-off is given here; in the data, active = GI50 up to about 1.1 µM and inactive = higher.

Legend:
Experiment in all cases: growth of human tumour cells (NCI), 48 h
SK-MEL-5 = test system: SK-MEL-5
OVCAR-5 = test system: OVCAR-5
SF-295 = test system: SF-295
K562 = test system: K562
CAKI-1 = test system: CAKI-1
MDA-MB-231 = test system: MDA-MB-231
COLO 205 = test system: COLO 205
786-0 = test system: 786-0
LOX IMVI = test system: LOX IMVI
HOP-92 = test system: HOP-92
HOP-62 = test system: HOP-62
MOLT-4 = test system: MOLT-4
OVCAR-4 = test system: OVCAR-4
OVCAR-3 = test system: OVCAR-3
SNB-19 = test system: SNB-19
PC-3 = test system: PC-3
HL-60 = test system: HL-60
OVCAR-8 = test system: OVCAR-8
HCC 2998 = test system: HCC 2998
T47D = test system: T47D

| Compound | GI50 (SK-MEL-5) | GI50 (OVCAR-5) | GI50 (SF-295) | GI50 (K562) | GI50 (CAKI-1) | GI50 (MDA-MB-231) | GI50 (COLO 205) | GI50 (786-0) | GI50 (LOX IMVI) | GI50 (HOP-92) | GI50 (HOP-62) | GI50 (MOLT-4) | GI50 (OVCAR-4) | GI50 (OVCAR-3) | GI50 (SNB-19) | GI50 (PC-3) | GI50 (HL-60) | GI50 (OVCAR-8) | GI50 (HCC 2998) | GI50 (T47D) |
| --- | --- | --- | --- | --- | --- | --- | --- | --- | --- | --- | --- | --- | --- | --- | --- | --- | --- | --- | --- | --- |
| COc1cc2c(cc1OC)C13CCN4CC5=CCOC(CC(=O)O)C(C5CC41)C3N2 (configuration not stated) | > 100 µM (inactive) | > 100 µM (inactive) | > 100 µM (inactive) | > 100 µM (inactive) | > 100 µM (inactive) | > 100 µM (inactive) | > 100 µM (inactive) | > 100 µM (inactive) | > 100 µM (inactive) | 78.3 µM (inactive) | > 100 µM (inactive) | > 100 µM (inactive) | > 100 µM (inactive) | > 100 µM (inactive) | > 100 µM (inactive) | > 100 µM (inactive) | > 100 µM (inactive) | > 100 µM (inactive) | – | – |
| Cc1ccc(NC(=O)C(=O)C(C#N)c2ccccc2C)cc1C (configuration not stated) | > 100 µM (inactive) | > 100 µM (inactive) | > 100 µM (inactive) | > 44.9 µM (inactive) | > 100 µM (inactive) | – | > 45.5 µM (inactive) | > 68.2 µM (inactive) | > 41.2 µM (inactive) | > 100 µM (inactive) | > 100 µM (inactive) | > 100 µM (inactive) | > 100 µM (inactive) | > 100 µM (inactive) | > 100 µM (inactive) | – | > 54.1 µM (inactive) | > 100 µM (inactive) | > 54.3 µM (inactive) | – |
| O=C1C[C@H](c2ccc(O)c(O)c2)Oc2cc(O)cc(O)c21 | > 100 µM (inactive) | > 100 µM (inactive) | > 100 µM (inactive) | > 100 µM (inactive) | > 100 µM (inactive) | – | > 100 µM (inactive) | > 100 µM (inactive) | > 100 µM (inactive) | 56.8 µM (inactive) | > 100 µM (inactive) | 74.5 µM (inactive) | > 100 µM (inactive) | > 100 µM (inactive) | > 100 µM (inactive) | – | 30.6 µM (inactive) | > 100 µM (inactive) | > 100 µM (inactive) | – |
| BrC(/C=N/Nc1nnc(-c2ccccc2)c(-c2ccccc2)n1)C(Br)c1ccccc1 (configuration not stated) | 21.9 µM (inactive) | 51.5 µM (inactive) | 30.5 µM (inactive) | 22.6 µM (inactive) | 30.7 µM (inactive) | – | 33.2 µM (inactive) | 32 µM (inactive) | 41.5 µM (inactive) | 20.3 µM (inactive) | 20.6 µM (inactive) | 17.7 µM (inactive) | > 10 µM (inactive) | 35.7 µM (inactive) | 64.4 µM (inactive) | – | 22.4 µM (inactive) | 38.5 µM (inactive) | 30.3 µM (inactive) | – |
| CCOC(=O)C1=CN=C2C(=O)N(c3ccccc3)N(C)C2(C)C1=N (configuration not stated) | > 100 µM (inactive) | > 100 µM (inactive) | > 100 µM (inactive) | > 100 µM (inactive) | > 100 µM (inactive) | > 100 µM (inactive) | > 100 µM (inactive) | > 100 µM (inactive) | > 100 µM (inactive) | > 100 µM (inactive) | – | – | > 100 µM (inactive) | > 100 µM (inactive) | > 100 µM (inactive) | > 100 µM (inactive) | > 100 µM (inactive) | > 100 µM (inactive) | > 100 µM (inactive) | – |
| O/N=C1/C(=C/c2ccc(Oc3ccccc3)cc2)CCCC1C(NO)c1ccc(Oc2ccccc2)cc1 (configuration not stated) | 13.4 µM (inactive) | 63 µM (inactive) | 41.6 µM (inactive) | 19.8 µM (inactive) | 33.2 µM (inactive) | – | 19.3 µM (inactive) | 28.6 µM (inactive) | 13.6 µM (inactive) | 17.9 µM (inactive) | > 100 µM (inactive) | 4.43 µM (inactive) | 29.7 µM (inactive) | 32 µM (inactive) | > 100 µM (inactive) | – | 8.51 µM (inactive) | 26.4 µM (inactive) | 32.5 µM (inactive) | – |
| CC(=O)C1=C(C)NC2C=CC=CN12 (configuration not stated) | > 100 µM (inactive) | > 100 µM (inactive) | > 100 µM (inactive) | > 100 µM (inactive) | > 100 µM (inactive) | – | > 100 µM (inactive) | > 100 µM (inactive) | > 100 µM (inactive) | > 100 µM (inactive) | > 100 µM (inactive) | > 100 µM (inactive) | > 100 µM (inactive) | > 100 µM (inactive) | > 100 µM (inactive) | – | > 100 µM (inactive) | > 100 µM (inactive) | > 100 µM (inactive) | – |
| Cc1ccc(C(=O)N/N=C(\N=N\c2cccc([N+](=O)[O-])c2)c2ccc(N(C)C)cc2)cc1 | 25.7 µM (inactive) | > 100 µM (inactive) | 48.6 µM (inactive) | 30.3 µM (inactive) | 68.1 µM (inactive) | > 100 µM (inactive) | > 100 µM (inactive) | > 100 µM (inactive) | 99.8 µM (inactive) | > 100 µM (inactive) | – | 14.4 µM (inactive) | 24.4 µM (inactive) | 34.6 µM (inactive) | 54.5 µM (inactive) | > 100 µM (inactive) | 27.9 µM (inactive) | 97.1 µM (inactive) | > 100 µM (inactive) | – |
| N#CC(/C(CCCC(=O)Nc1cccc([N+](=O)[O-])c1)=N/NC(=O)c1cc2ccccc2cc1O)c1ccccc1 (configuration not stated) | 21.2 µM (inactive) | 36.5 µM (inactive) | 39.1 µM (inactive) | 17.7 µM (inactive) | 28 µM (inactive) | – | 23.6 µM (inactive) | 24.2 µM (inactive) | 16.4 µM (inactive) | 29.8 µM (inactive) | 60.7 µM (inactive) | 14.6 µM (inactive) | 31.1 µM (inactive) | 25.8 µM (inactive) | 28.8 µM (inactive) | – | 4.79 µM (inactive) | 17.5 µM (inactive) | 36.6 µM (inactive) | – |
| COc1cc2c(c(O)c1O)C(=O)C1CCC(=O)N1C2c1cccc2ccccc12 (configuration not stated) | – | > 50 µM (inactive) | > 50 µM (inactive) | > 50 µM (inactive) | – | – | > 50 µM (inactive) | > 50 µM (inactive) | – | > 50 µM (inactive) | > 50 µM (inactive) | > 50 µM (inactive) | > 50 µM (inactive) | > 50 µM (inactive) | > 50 µM (inactive) | > 50 µM (inactive) | > 50 µM (inactive) | > 50 µM (inactive) | – | > 50 µM (inactive) |
| CNC(=S)/N=c1/sc(NC)nc2sc3c(c12)CCCC3 | > 100 µM (inactive) | > 100 µM (inactive) | 30.8 µM (inactive) | > 100 µM (inactive) | > 100 µM (inactive) | 51.9 µM (inactive) | > 100 µM (inactive) | 38.1 µM (inactive) | > 100 µM (inactive) | 37.3 µM (inactive) | 55 µM (inactive) | > 100 µM (inactive) | > 100 µM (inactive) | > 100 µM (inactive) | 35.9 µM (inactive) | > 100 µM (inactive) | > 100 µM (inactive) | – | > 100 µM (inactive) | – |
| COc1cc2c(cc1OC)C(C(CBr)CBr)N(C1CCCC1)CC2 (configuration not stated) | > 100 µM (inactive) | > 100 µM (inactive) | > 100 µM (inactive) | > 100 µM (inactive) | > 100 µM (inactive) | – | > 100 µM (inactive) | > 100 µM (inactive) | > 100 µM (inactive) | 41.3 µM (inactive) | > 100 µM (inactive) | > 100 µM (inactive) | > 100 µM (inactive) | > 100 µM (inactive) | > 100 µM (inactive) | – | > 100 µM (inactive) | > 100 µM (inactive) | > 100 µM (inactive) | – |
| Nc1nc(Cl)cc(OCC2(CO)CC=CC2)n1 | > 100 µM (inactive) | > 100 µM (inactive) | > 100 µM (inactive) | 95.7 µM (inactive) | – | – | – | > 100 µM (inactive) | > 100 µM (inactive) | > 100 µM (inactive) | > 100 µM (inactive) | > 100 µM (inactive) | > 100 µM (inactive) | > 100 µM (inactive) | > 100 µM (inactive) | > 100 µM (inactive) | > 100 µM (inactive) | > 100 µM (inactive) | > 100 µM (inactive) | – |
| COC(=O)N/N=C/c1oc(-c2ccccc2)c(-c2ccccc2)c1[N+](=O)[O-] | > 100 µM (inactive) | > 100 µM (inactive) | > 100 µM (inactive) | > 100 µM (inactive) | > 100 µM (inactive) | – | > 100 µM (inactive) | > 100 µM (inactive) | > 100 µM (inactive) | > 100 µM (inactive) | > 100 µM (inactive) | > 100 µM (inactive) | > 100 µM (inactive) | > 100 µM (inactive) | > 100 µM (inactive) | – | > 100 µM (inactive) | > 100 µM (inactive) | > 100 µM (inactive) | – |
| COC1=CC(C2c3cc4c(cc3[C@@H](Nc3ccc([N+](=O)[O-])cc3)C3COC(=O)[C@H]23)OCO4)=CC(=O)C1=O (some centres not stated) | 3.48 µM (inactive) | 5.53 µM (inactive) | 2.09 µM (inactive) | 6.22 µM (inactive) | 2.64 µM (inactive) | – | 21.4 µM (inactive) | 1.83 µM (inactive) | 2.15 µM (inactive) | 1.52 µM (inactive) | 0.646 µM (active) | 0.217 µM (active) | 59.3 µM (inactive) | 14.2 µM (inactive) | 3.07 µM (inactive) | – | 0.982 µM (active) | 4.25 µM (inactive) | 2.63 µM (inactive) | – |
| COC(=O)C[S+]([O-])c1ccccc1 (configuration not stated) | 25.4 µM (inactive) | 68.4 µM (inactive) | 36.6 µM (inactive) | 35.9 µM (inactive) | 58.1 µM (inactive) | – | 34.3 µM (inactive) | 26.7 µM (inactive) | 21.8 µM (inactive) | 17.6 µM (inactive) | 32.6 µM (inactive) | 10.8 µM (inactive) | 41.2 µM (inactive) | 31.3 µM (inactive) | 37.8 µM (inactive) | – | 15.5 µM (inactive) | 27.5 µM (inactive) | 25.3 µM (inactive) | – |
